The values below come from ChEMBL document CHEMBL1201862, “PubChem BioAssay data set” (2004).

In test [1] the target is Keap1/Nrf2 (Homo sapiens, UniProt Q14145). As to the kind of experiment: disruptors of Keap1 binding to Nrf2 peptide – biochemical, fluorescence polarization, cherry-picked samples, dose response (AID 588683).
Test [2] deals with Glutathione-S-transferase (Schistosoma japonicum, UniProt Q26513). Nature of the test: GST-antibody interaction or FRET quenching – biochemical, TR-FRET, artefact control for Vif-APOBEC3G degradation inhibitor project, dose response (AID 1117362). The class given is functional.
Chain of Glutathione-S-transferase (Q26513 whole entry): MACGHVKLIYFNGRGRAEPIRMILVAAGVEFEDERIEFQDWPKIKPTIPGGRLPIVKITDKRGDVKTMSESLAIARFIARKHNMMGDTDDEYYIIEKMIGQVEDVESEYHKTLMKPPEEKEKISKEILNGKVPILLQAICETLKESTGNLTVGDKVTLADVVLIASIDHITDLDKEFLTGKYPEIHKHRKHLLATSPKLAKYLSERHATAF
Test [3] has as its target T1, Leucine aminopeptidase (Plasmodium falciparum 3D7, UniProt Q8IL11).
T1 sequence (Q8IL11 whole entry): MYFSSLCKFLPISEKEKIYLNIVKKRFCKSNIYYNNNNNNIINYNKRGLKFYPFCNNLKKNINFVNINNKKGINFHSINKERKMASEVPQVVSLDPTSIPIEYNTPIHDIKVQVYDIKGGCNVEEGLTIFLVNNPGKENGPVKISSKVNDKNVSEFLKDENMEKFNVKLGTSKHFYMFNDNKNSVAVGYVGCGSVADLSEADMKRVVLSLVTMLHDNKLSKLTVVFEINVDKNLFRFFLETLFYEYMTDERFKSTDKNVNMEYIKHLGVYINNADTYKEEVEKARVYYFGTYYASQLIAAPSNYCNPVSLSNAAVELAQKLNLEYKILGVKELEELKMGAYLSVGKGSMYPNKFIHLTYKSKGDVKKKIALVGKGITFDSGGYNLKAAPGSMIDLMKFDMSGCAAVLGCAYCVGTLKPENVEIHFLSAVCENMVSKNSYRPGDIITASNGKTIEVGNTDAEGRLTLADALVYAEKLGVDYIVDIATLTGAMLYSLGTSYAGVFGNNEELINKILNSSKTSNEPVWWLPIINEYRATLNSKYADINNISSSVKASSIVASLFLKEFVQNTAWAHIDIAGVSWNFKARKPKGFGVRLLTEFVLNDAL
Nature of the test: P. falciparum M17LAP inhibitors, primary screen, biochemical, fluorogenic H-Leu-NHMec substrate, 1536-well (AID 1619). The class given is functional.

Test [4] has as its target Heat shock protein HSP 90-alpha (Homo sapiens, UniProt P07900). Nature of the test: Luminescence-based dose response biochemical high throughput screening assay for inhibitors of the Heat Shock Protein 90 (HSP90). [Related pubchem assays: 1831 (Summary AID.), 1846 (Confirmation screen.), 1789 (Primary screen.)].
Test [5] addresses Bifunctional protein GlmU (Mycobacterium tuberculosis, UniProt P9WMN3). Nature of the test: Inhibitors of Mycobacterial Glucosamine-1-phosphate acetyl transferase (GlmU). Secondary screen. Also noted: species or system Mycobacterium tuberculosis H37Rv.
In test [6] the target is Genome polyprotein (dengue virus type 2, UniProt P29990). Nature of the test: flavivirus cap methylation enzyme inhibition – biochemical, confirmation dose response, primary screen (AID 588689). The class given is functional.
Chain of Genome polyprotein (P29990 2492-3391 limits assumed): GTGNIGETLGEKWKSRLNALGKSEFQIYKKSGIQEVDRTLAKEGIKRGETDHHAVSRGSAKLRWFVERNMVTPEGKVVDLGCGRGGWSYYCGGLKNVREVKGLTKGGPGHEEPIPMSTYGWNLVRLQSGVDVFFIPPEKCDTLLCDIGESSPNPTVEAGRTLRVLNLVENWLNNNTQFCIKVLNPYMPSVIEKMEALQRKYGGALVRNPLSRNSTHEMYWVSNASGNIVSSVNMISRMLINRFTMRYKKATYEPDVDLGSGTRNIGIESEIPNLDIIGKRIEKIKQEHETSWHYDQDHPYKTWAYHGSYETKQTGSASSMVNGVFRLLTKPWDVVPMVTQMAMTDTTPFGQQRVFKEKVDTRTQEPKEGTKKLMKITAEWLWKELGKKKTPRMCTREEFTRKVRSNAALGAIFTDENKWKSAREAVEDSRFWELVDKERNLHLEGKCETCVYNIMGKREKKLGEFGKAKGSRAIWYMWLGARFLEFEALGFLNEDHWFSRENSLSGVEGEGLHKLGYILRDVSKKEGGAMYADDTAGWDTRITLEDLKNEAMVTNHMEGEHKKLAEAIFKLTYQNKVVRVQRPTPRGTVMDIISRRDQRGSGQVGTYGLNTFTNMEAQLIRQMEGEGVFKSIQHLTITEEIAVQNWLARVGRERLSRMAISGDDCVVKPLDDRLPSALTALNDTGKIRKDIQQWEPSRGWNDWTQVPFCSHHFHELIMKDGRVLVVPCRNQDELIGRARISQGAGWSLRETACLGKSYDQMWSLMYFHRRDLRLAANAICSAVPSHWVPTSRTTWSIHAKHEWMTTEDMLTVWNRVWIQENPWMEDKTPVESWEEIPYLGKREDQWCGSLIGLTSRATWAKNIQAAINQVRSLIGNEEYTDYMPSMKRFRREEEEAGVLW
The target of test [7] is T2, Carboxy-terminal domain RNA polymerase II polypeptide A small phosphatase 1 (Homo sapiens, UniProt Q9GZU7).
T2 sequence (Q9GZU7 whole entry): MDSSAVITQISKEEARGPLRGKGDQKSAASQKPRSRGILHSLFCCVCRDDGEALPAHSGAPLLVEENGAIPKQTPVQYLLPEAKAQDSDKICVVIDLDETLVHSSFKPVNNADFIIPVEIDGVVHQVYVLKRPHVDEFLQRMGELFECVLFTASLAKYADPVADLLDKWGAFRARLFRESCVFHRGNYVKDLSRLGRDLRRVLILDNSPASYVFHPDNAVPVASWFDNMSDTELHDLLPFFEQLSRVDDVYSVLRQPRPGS
As to the kind of experiment: CTDSP1 inhibitors, concentration-response, biochemical, absorbance readout, ultra-high-throughput screen actives (AID 540297). The class given is functional.

In test [8] the target is Tyrosine-protein phosphatase non-receptor type 11 (Homo sapiens, UniProt Q06124). Nature of the test: PTPN11 enzyme inhibitors – biochemical, selectivity assay for STEP inhibitor project, dose response (AID 602367). Particulars: read-out: IC50_Mean. The class given is functional.
Chain of Tyrosine-protein phosphatase non-receptor type 11 (Q06124 whole entry): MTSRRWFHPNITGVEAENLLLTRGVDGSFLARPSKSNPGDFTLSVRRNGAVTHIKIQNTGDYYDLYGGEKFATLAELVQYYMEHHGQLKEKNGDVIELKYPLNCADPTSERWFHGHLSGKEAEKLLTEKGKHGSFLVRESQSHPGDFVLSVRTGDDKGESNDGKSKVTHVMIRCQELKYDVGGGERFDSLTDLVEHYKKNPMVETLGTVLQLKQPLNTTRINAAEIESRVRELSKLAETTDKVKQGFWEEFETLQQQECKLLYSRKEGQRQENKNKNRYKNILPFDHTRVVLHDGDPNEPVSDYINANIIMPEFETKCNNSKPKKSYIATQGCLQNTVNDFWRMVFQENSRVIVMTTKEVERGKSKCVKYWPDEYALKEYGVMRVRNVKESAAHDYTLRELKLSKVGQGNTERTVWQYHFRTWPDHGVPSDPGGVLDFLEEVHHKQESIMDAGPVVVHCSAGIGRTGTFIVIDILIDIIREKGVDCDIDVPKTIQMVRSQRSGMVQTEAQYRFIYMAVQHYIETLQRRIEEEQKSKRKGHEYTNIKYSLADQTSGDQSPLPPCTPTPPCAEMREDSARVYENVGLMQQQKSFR
In test [9] the target is Tyrosine-protein phosphatase non-receptor type 5 (Homo sapiens, UniProt P54829). Nature of the test: PTPN5 enzyme inhibition – biochemical, fluorescence intensity, uHTS hits, confirmation (AID 602372). Particulars: read-out: IC50_Mean. The class given is functional.
Chain of Tyrosine-protein phosphatase non-receptor type 5 (P54829 whole entry): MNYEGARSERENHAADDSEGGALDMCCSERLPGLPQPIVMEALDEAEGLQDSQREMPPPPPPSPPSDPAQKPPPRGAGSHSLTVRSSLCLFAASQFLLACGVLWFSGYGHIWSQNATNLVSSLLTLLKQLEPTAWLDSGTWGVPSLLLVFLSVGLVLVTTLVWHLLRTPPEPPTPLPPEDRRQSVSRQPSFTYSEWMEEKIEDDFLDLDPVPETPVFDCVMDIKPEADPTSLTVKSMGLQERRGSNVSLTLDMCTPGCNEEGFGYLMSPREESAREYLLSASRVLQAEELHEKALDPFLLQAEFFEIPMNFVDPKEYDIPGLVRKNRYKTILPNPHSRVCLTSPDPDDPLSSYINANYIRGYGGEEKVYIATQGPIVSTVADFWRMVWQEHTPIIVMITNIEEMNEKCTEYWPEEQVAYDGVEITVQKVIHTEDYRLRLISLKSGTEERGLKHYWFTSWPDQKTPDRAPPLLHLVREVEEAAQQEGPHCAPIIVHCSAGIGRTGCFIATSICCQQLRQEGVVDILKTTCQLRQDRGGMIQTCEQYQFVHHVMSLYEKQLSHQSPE
Test [10] addresses Dual specificity protein phosphatase 3 (Homo sapiens, UniProt P51452). Nature of the test: VHR phosphatase inhibition, dose response, selectivity assay for STEP inhibitor project, biochemical (AID 602374). The note with it: read-out: IC50_Mean. The class given is functional.
A short description of test [11]: BioA aminotransferase inhibition, coupled fluorescent readout – biochemical, coupled fluorescence displacement, 20-point, dry powder, dose response (AID 743357). The class given is functional.
The target in test [12] is G-protein coupled receptor 183 (Homo sapiens, UniProt P32249). Nature of the test: SAR confirmation of small molecule antagonists of the EBI2 receptor via a luminescent beta-arrestin assa. The class given is functional.
Chain of G-protein coupled receptor 183 (P32249 whole entry): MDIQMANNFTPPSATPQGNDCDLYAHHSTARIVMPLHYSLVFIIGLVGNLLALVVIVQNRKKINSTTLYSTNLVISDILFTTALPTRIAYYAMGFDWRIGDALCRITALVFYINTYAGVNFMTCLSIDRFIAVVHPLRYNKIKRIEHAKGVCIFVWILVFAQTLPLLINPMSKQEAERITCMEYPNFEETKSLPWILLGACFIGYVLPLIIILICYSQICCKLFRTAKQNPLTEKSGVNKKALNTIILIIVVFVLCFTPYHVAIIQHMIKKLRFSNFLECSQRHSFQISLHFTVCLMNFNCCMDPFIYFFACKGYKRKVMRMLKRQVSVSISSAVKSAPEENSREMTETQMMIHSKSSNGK
The nature of test [13]: growth inhibition of yeast DHODH-expressing 3D7 parasites – SYBR Green, dry powder samples, dose response (AID 1159570).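 Further: parasite growth measured after 72 hours of compound exposure.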 It counts as functional, cell-based.
Test [14] is described as follows: P. falciparum Dd2 growth inhibitors, dose response, SYBR Green, cherry-picked samples (AID 1159567). It counts as functional, cell-based.
Test [15] can be described thus: Dd2 malaria parasite growth inhibition potency – SYBR Green, dry powder samples, dose response (AID 1159566).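 Further: potency for growth inhibition with lower SYBR green DNA signal.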 The class given is functional, cell-based.
Test [16] in a line: toxicity to human hepatoma HepG2 cells – cell-based, cherry-picked samples, cytotoxicity control, dose response (AID 1159577). The class given is functional.
Test [17] in a line: growth inhibition of PfATP4-mutant resistant parasites – NITD609-resistant line, SYBR Green, dry powder, dose response (AID 1159571).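 Further: parasites synchronized at ring stage by sorbitol before testing.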 It counts as functional, cell-based.
Test [18] is described as follows: inhibitors of TRPM1-promoter reporter in SK-MEL-5 – cell-based, luciferase, dry powder, set 9, MITF inhibitor project, dose response (AID 651588). It counts as functional.
Test [19] in a line: cytotoxicity in MITF-independent A375 cells – cell-based, CellTiter-Glo luminescence, dry powder, set 4, counter-screen for MITF inhibitor project, dose response (AID 624364).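 Further: A375 melanoma cells are MITF independent so this is a counter screen.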 The class given is functional. The note with it: A-375. A general note: Cellular ATP, detected with luciferase, serves as a proxy for viable cell number.
A short description of test [20]: viability loss in MITF-independent A375 cells – cell-based, CellTiter-Glo luminescence, dry powder, set 7, counter-screen for MITF inhibitor project, dose response (AID 624490). The class given is functional. The note with it: A-375.
Test [21] can be described thus: MITF Orthogonal Assay: MALME3 CTG Assay Measured in Cell-Based System Using Plate Reader - 2084-04_Inhibitor_Dose_DryPowder_Activity_Set6. It counts as functional. Particulars: MALME-3.
The nature of test [22]: growth inhibition of SK-MEL-5 melanoma cells – cell-based, CellTiter-Glo luminescence, dry powder, set 8, orthogonal assay for MITF inhibitor project, dose response (AID 651586). It counts as functional.
Test [23] in a line: growth inhibition of MALME3 cells – cell-based, CellTiter-Glo luminescence, dry powder, set 5, orthogonal assay for MITF inhibitor project, dose response (AID 651584). Particulars: MALME-3. It counts as functional.
Test [24] is described as follows: cytotoxicity in melanoma parental cells – cell-based, CellTiter-Glo, dry powder, set 6, MITF inhibitor project, dose response (AID 624429). The note with it: SK-MEL-5. It counts as functional.
Test [25] is described as follows: MITF Orthogonal Assay: SK-MEL-5 CTG Assay Measured in Cell-Based System Using Plate Reader - 2084-02_Inhibitor_Dose_DryPowder_Activity_Set5. The class given is functional.
Test [26] is described as follows: viability loss in MITF-independent A375 cells – cell-based, CellTiter-Glo luminescence, dry powder, set 6, counter-screen for MITF inhibitor project, dose response (AID 624488). The class given is functional. Particulars: A-375.
Test [27] is described as follows: cytotoxicity in MITF-independent A375 cells – cell-based, CellTiter-Glo luminescence, dry powder, set 9, counter-screen for MITF modulator project, dose response (AID 651591). The class given is functional. Particulars: A-375.
Test [28] is described as follows: MITF Measured in Cell-Based System Using Plate Reader - 2084-01_Inhibitor_Dose_DryPowder_Activity_Set6. It counts as functional.
The nature of test [29]: viability loss in MITF-independent A375 cells – cell-based, CellTiter-Glo luminescence, dry powder, set 2, counter-screen for MITF inhibitor project, dose response (AID 624489).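 Further: actives are compounds lowering A375 viability meaning general cytotoxicity.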 The note with it: A-375. The class given is functional.
The nature of test [30]: MITF Measured in Cell-Based System Using Plate Reader - 2084-01_Inhibitor_Dose_DryPowder_Activity_Set7. The class given is functional.
A short description of test [31]: melanocyte viability loss, MITF-dependent cells, cell-based, plate reader, dry powder, cytotoxicity control, dose response (AID 651920). It counts as functional.

Calls of active or inactive are those of the source. Some results are limits rather than exact numbers.

Chain of Dual specificity protein phosphatase 3 (P51452 whole entry): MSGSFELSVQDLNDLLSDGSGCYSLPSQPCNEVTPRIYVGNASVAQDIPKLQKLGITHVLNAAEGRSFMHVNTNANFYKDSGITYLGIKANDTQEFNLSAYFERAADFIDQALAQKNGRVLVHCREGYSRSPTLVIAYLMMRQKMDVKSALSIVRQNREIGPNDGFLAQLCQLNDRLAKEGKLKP
Chain of Bifunctional protein GlmU (P9WMN3 whole entry): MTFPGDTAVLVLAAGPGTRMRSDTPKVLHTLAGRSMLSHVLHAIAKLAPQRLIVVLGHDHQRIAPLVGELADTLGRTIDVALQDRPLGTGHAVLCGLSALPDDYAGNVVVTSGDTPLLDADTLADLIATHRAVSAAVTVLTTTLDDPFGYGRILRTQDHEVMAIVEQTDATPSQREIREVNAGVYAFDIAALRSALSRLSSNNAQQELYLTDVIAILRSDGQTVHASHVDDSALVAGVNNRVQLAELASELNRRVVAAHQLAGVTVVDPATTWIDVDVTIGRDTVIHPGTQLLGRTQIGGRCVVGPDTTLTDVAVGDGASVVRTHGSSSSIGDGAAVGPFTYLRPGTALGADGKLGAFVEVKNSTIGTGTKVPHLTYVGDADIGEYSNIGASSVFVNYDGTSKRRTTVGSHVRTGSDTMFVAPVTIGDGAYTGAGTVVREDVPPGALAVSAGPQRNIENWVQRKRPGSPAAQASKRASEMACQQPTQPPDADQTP
Chain of Keap1/Nrf2 (Q16236 whole entry): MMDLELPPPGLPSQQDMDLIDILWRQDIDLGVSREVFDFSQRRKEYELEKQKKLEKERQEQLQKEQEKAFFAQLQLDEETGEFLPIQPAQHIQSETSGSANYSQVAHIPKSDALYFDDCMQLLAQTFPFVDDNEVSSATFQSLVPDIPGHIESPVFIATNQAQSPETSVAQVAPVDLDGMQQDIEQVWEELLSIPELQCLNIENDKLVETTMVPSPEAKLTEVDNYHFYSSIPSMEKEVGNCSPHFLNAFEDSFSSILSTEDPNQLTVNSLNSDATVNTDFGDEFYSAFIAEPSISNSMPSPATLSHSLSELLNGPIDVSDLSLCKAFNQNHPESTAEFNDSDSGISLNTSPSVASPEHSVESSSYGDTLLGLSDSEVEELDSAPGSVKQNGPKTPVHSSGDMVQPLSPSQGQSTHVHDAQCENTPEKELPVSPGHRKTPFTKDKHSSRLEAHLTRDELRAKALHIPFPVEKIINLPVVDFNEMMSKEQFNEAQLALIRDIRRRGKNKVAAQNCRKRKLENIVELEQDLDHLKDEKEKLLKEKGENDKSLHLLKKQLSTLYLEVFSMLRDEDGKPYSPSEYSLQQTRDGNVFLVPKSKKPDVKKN
Chain of Keap1/Nrf2 (Q14145 whole entry): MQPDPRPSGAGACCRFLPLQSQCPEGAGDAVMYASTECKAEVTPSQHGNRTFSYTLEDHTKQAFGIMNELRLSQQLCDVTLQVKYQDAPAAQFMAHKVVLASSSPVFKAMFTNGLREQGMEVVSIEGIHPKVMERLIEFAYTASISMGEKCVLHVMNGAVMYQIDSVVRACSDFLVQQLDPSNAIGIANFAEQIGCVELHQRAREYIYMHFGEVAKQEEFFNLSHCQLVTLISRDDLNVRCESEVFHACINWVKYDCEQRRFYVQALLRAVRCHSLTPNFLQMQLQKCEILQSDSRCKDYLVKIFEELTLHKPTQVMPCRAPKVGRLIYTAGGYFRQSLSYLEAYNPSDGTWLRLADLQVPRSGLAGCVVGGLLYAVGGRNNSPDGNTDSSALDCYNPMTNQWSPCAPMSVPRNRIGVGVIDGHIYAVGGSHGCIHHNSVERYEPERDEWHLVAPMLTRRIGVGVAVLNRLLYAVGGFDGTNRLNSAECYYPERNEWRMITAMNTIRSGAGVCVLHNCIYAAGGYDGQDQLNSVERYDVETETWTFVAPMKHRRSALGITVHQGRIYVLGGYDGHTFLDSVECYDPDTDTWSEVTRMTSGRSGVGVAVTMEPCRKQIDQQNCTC

`COC(=O)C1=COC(C)C2CN3CCc4c([nH]c5ccccc45)C3CC12` (stereo unspecified): the AC50 in test [1] was > 52 µM (inactive). Further, in test [2], the IC50 is > 100 µM (active).

`COc1cc(/C=N/Nc2ccc(Cl)c(C(=O)O)c2)ccc1OC(=O)c1ccco1`: the IC50 in [3] was 48.8 µM (active); in test [4], 792 nM (active).

Take `CCc1c(C)[nH]n(-c2ccc(Oc3ccccc3)c(S(=O)(=O)O)c2)c1=O`: the IC50 was 157 µM (active) in [5]; 84.5 µM (active) in [6]; 4.83 µM (active) in [7]; 3.1 µM (active) in test [8]; 58.8 µM (inactive) in test [9]; 3.6 µM (active) in test [10].

As for `COc1cc2c(cc1C(=O)N1CCN(c3ccc(C(C)=O)cc3)CC1)OCO2`, the half-maximal activity concentration (AC50) in test [11] is 13.7 µM (active).

As for `O=C(/C=C/c1ccc(F)cc1)N1CCN(S(=O)(=O)c2ccc([N+](=O)[O-])cc2)CC1`, the IC50 in test [12] is 12.9 nM (active).

With `C[C@H](CO)N1C[C@H](C)[C@@H](CN(C)CC2CC2)Oc2ccc(NC(=O)Nc3cccc4ccccc34)cc2CC1=O`, the AC50 is 2.09 µM (active) in test [13]; 2.93 µM (active) in test [14]; 1.72 µM (active) in test [15]; > 39 µM (inactive) in test [16]; 3.39 µM (active) in test [17].

`NC1=CC(=O)c2ccccc2C1=O`: the AC50 in test [18] is 12.1 µM (active); in test [19], > 70 µM (inactive); in test [20], 45.7 µM (active); in [21], 9.48 µM (active); in [22], 8.76 µM (active); in test [23], 9.48 µM (active). For the same compound, the AC50 in [24] is 6.75 µM (active); in [25], 5.13 µM (active); in test [26], 56.9 µM (active); in test [27], > 70 µM (inactive); in test [28], 4.14 µM (active); in [29], 65.7 µM (active). In addition, the figures for the AC50 in test [30] and in test [31] were 1.28 µM (active) and 25.1 µM (active), respectively.

Usually AC50 stands for the midpoint of the concentration-response curve, whichever way the signal moves.
